These results are taken from the kinase profiling compilation of Christmann-Franck et al. (2016).

One assay deals with MAP2K3 (human) (UniProt P46734). Kind of assay: ELISA. Background: ELISA stands for enzyme-linked immunosorbent assay.
The target of a further assay is MAP3K4 (human) (UniProt Q9Y6R4). Description: ELISA.
In another assay the target is ABL1 (human) (UniProt P00519). Description: Caliper, Mobility shift assay off-chip.
The next assay concerns the target EGFR (human) (UniProt P00533). Description: Caliper, Mobility shift assay off-chip.
The target of another assay is LCK (human) (UniProt P06239). Kind of assay: Caliper, Mobility shift assay off-chip.
Sequence of LCK (human) (P06239 whole entry, looked up): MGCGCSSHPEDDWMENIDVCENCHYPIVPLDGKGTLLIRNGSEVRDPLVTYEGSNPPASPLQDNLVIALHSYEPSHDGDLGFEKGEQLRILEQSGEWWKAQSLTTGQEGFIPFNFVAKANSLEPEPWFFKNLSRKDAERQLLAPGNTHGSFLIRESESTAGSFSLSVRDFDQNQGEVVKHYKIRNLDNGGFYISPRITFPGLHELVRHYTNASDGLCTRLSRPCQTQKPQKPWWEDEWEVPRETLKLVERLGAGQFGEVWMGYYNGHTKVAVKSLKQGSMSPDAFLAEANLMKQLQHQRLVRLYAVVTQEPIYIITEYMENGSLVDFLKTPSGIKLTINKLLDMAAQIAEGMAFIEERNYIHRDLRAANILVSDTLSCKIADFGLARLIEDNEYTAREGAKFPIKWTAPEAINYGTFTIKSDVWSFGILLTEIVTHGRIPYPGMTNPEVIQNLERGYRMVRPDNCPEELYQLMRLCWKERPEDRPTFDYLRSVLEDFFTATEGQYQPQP

Sequence of EGFR (human) (P00533 whole entry, looked up): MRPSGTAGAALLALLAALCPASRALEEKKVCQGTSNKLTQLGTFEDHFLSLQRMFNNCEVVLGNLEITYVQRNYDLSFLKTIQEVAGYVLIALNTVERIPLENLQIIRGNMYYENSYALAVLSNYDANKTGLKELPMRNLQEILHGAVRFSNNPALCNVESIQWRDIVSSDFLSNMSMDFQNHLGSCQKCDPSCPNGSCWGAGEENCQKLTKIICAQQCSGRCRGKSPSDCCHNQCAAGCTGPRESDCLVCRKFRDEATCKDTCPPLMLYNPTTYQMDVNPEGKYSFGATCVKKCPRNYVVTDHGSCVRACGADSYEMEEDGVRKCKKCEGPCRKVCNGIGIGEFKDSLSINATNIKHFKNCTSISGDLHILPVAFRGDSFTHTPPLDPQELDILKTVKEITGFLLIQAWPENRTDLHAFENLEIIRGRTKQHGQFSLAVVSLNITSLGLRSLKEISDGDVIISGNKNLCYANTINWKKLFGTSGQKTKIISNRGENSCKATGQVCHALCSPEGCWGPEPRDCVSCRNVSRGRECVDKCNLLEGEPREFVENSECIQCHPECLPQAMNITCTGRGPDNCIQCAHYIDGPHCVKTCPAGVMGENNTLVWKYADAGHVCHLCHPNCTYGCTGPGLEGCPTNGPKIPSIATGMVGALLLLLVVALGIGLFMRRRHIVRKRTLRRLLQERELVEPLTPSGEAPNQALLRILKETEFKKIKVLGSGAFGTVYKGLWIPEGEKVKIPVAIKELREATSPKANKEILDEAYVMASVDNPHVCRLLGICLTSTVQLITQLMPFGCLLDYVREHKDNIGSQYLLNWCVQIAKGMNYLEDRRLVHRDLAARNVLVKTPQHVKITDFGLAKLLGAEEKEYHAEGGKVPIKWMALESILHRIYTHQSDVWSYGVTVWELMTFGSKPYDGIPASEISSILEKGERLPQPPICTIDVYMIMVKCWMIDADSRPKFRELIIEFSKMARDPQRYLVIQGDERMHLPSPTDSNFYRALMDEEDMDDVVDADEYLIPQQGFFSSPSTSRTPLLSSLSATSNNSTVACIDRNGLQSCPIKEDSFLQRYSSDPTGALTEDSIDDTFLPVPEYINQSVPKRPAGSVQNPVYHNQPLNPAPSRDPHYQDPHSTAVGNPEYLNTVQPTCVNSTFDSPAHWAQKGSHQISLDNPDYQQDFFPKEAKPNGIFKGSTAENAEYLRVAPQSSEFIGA
Sequence of MAP2K3 (human) (P46734 whole entry, looked up): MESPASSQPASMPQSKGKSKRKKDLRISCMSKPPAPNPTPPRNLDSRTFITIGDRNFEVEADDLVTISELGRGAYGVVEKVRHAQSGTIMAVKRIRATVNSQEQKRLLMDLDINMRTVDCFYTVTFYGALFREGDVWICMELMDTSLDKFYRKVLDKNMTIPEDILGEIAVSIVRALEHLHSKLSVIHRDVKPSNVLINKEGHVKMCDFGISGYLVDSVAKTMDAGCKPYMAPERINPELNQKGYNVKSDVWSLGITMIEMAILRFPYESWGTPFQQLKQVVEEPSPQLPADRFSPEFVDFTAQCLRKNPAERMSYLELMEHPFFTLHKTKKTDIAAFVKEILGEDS
Sequence of MAP3K4 (human) (Q9Y6R4 whole entry, looked up): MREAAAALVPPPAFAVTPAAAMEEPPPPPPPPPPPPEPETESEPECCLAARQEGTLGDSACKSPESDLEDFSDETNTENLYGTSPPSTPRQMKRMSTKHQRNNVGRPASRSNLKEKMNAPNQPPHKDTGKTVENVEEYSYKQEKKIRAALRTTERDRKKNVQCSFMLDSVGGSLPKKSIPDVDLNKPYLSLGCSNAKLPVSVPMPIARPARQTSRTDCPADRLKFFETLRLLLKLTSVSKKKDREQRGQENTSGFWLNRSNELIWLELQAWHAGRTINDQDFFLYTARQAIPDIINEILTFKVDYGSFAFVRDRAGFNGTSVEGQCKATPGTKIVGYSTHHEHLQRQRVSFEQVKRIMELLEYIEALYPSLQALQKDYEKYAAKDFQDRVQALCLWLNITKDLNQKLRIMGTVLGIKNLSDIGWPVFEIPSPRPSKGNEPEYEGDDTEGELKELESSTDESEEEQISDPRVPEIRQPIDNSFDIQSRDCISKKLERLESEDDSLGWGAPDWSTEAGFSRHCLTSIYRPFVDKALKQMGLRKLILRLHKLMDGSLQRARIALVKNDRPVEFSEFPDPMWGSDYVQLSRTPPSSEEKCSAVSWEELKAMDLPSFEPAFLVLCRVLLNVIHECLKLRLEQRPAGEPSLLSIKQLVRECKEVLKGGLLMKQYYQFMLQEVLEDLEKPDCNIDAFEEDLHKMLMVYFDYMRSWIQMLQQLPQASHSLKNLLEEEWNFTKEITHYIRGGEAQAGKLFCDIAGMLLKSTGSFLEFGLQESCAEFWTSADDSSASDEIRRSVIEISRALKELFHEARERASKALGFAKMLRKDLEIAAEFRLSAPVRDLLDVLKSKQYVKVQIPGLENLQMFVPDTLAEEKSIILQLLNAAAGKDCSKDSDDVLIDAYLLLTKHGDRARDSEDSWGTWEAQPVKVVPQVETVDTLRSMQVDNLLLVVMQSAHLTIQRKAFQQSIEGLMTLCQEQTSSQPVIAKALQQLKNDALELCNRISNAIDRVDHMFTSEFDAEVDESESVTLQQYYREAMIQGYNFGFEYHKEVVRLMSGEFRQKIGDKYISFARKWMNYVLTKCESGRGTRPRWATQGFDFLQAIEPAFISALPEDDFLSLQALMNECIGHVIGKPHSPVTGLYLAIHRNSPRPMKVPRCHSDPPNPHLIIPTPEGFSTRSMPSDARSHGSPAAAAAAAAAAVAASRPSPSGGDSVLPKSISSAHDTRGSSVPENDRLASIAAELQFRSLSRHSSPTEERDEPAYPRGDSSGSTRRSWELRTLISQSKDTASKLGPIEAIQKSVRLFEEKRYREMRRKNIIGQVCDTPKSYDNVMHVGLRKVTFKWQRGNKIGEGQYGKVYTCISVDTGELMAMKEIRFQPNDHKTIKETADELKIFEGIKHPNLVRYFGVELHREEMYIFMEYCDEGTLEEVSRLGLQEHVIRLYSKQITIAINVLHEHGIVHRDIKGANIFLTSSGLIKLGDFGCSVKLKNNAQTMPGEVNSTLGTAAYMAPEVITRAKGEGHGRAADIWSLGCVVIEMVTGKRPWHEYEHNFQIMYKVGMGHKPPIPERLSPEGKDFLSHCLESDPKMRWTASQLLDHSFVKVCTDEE
Sequence of ABL1 (human) (P00519 whole entry, looked up): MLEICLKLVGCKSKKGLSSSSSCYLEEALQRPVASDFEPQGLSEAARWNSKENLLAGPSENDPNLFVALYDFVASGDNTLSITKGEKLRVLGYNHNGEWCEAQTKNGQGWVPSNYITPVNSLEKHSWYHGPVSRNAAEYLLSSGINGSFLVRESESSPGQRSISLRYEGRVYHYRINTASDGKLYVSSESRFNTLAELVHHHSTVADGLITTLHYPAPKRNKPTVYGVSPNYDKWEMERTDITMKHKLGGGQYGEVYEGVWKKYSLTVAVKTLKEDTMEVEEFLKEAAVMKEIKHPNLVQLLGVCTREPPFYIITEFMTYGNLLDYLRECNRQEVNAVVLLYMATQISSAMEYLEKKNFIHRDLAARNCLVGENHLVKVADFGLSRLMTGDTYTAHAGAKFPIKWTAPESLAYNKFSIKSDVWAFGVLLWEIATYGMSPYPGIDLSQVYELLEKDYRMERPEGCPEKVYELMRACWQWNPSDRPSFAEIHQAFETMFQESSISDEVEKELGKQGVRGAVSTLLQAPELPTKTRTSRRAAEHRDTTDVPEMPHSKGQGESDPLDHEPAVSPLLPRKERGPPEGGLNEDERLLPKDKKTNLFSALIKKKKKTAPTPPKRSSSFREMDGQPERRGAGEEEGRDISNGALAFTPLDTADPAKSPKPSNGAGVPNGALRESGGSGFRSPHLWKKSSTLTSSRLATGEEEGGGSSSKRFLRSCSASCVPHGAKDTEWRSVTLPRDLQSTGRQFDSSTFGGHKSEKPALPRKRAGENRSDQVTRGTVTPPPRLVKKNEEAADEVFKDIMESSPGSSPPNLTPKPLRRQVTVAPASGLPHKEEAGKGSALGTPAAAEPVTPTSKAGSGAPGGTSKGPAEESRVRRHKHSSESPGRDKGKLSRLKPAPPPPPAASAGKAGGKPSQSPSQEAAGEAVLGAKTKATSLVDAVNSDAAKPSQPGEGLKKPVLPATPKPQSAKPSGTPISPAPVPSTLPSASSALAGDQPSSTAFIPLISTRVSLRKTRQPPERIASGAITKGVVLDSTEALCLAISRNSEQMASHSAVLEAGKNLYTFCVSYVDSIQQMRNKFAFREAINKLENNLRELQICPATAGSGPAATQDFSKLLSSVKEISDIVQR

For `CNC(=O)c1cc(Oc2ccc(NC(=O)Nc3ccc(Cl)c(C(F)(F)F)c3)cc2)ccn1`, the inhibition at MAP2K3 (human) (compound 0.02 µM) is 9.8%; against MAP2K3 (human) (compound 0.2 µM), 58.5%; on MAP3K4 (human) (compound 0.02 µM), 8.5%; at MAP3K4 (human) (compound 0.2 µM) it was 4.4%.
Regarding `CCN(CC)CCNC(=O)c1c(C)[nH]c(/C=C2\C(=O)Nc3ccc(F)cc32)c1C`, the inhibition on MAP2K3 (human) (compound 0.2 µM) is -2%; at MAP3K4 (human) (compound 0.2 µM), -4.9%; on MAP3K4 (human) (compound 4.0 µM), 17.5%.
Turning to `COc1cc2c(Oc3ccc4[nH]c(C)cc4c3F)ncnc2cc1OCCCN1CCCC1`, the inhibition on ABL1 (human) (compound 0.02 µM) was found to be 24.1%; at ABL1 (human) (compound 0.2 µM) it was 58.9%; at EGFR (human) (compound 0.02 µM) it was 30.6%; at EGFR (human) (compound 0.2 µM), 78.4%; at LCK (human) (compound 0.02 µM), 23%; at LCK (human) (compound 0.2 µM) it was 72.7%. Moreover, the inhibition against MAP2K3 (human) (compound 0.02 µM) is -7.4%; against MAP2K3 (human) (compound 0.2 µM) it was -2.9%; on MAP3K4 (human) (compound 0.02 µM), -1.7%; on MAP3K4 (human) (compound 0.2 µM), -6.3%.
Regarding `CNC(=O)c1ccccc1Sc1ccc2c(/C=C/c3ccccn3)n[nH]c2c1`, the inhibition is -2.7% at MAP2K3 (human) (compound 0.001 µM), -2.2% against MAP2K3 (human) (compound 0.02 µM), -7.9% against MAP3K4 (human) (compound 0.001 µM) and -1.7% against MAP3K4 (human) (compound 0.02 µM).
For the compound `Cc1ccc(Nc2nccc(N(C)c3ccc4c(C)n(C)nc4c3)n2)cc1S(N)(=O)=O`, the inhibition is -1.3% at EGFR (human) (compound 0.2 µM); 7% at LCK (human) (compound 0.02 µM); 44.1% on LCK (human) (compound 0.2 µM); -3.4% on MAP2K3 (human) (compound 0.02 µM); 5.5% against MAP2K3 (human) (compound 0.2 µM); -1.5% on MAP3K4 (human) (compound 0.02 µM). Further, the inhibition against MAP3K4 (human) (compound 0.2 µM) came to 3%.

As usually defined, the inhibition is the drop in the measured response relative to a control, in per cent.
